# Assay results taken from ChEMBL document CHEMBL1201862, “PubChem BioAssay data set” (2004).
# The source made the active and inactive calls.
# How the values were obtained:
# cells [1] = format: functional, cell-based
# [2] = molecular target: T1, Nuclear receptor subfamily 0 group B member 1 (Homo sapiens, UniProt P51843); format: functional, cell-based;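 note: HEK293T cells transfected with SF-1 and DAX-1 plus StAR promoter luciferase reporter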
# T1 sequence (P51843 whole entry): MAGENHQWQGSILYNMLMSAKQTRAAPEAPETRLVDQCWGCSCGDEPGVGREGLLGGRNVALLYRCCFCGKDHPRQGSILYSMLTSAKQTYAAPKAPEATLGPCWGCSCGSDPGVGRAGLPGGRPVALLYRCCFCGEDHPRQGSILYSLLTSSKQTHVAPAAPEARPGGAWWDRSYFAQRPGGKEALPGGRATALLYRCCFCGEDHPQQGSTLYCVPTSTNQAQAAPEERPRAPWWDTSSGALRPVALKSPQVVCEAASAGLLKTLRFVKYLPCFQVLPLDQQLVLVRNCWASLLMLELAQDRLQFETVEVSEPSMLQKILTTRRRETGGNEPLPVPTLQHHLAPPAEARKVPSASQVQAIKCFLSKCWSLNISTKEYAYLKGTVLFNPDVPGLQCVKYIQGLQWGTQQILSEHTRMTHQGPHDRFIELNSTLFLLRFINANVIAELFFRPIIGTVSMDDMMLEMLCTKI
# Cytochrome P450 2C19 = Cytochrome P450 2C19 (Homo sapiens, UniProt P33261); test: Cytochrome panel assay with activity outcomes. Panel member name: p450-cyp2c19 Compounds with AC50 equal or less than 10 uM are considered active; format: functional; settings: read-out: AC50
# Cytochrome P450 2C9 = Cytochrome P450 2C9 (Homo sapiens, UniProt P11712)
# Cytochrome P450 3A4 = Cytochrome P450 3A4 (Homo sapiens, UniProt P08684);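 note: CYP3A4 tested as one member of a cytochrome P450 panel screen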
# Paired box protein Pax-8 = Paired box protein Pax-8 (Homo sapiens, UniProt Q06710); test: PAX8 transcriptional activity inhibition in RMG-I – RMG-I cells, luciferase, cherry-pick, dose response (AID 687027); format: functional, cell-based;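 note: luciferase reporter driven by Pax8 target thyroperoxidase promoter measured by SteadyGlo luminescence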
# [3] = Luminescence Cell-Based Dose Retest to Confirm Inhibitors of Cancer Stem Cells. [Related pubchem assays (depositor defined):AID2717, AID2721]; format: functional; settings: Homo sapiens
# [4] = molecular target: T2, Ubiquitin-conjugating enzyme E2 N (Homo sapiens, UniProt P61088); format: functional;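 note: Dose-response confirmation in a TR-FRET assay detecting UBC13-driven polyubiquitin chain formation, inhibition measured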
# T2 sequence (P61088 whole entry): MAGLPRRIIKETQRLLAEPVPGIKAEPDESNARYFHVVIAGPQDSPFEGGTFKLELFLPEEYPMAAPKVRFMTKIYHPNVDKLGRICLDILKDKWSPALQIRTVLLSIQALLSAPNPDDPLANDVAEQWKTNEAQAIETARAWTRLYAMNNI
# [5] = molecular target: T3, Microphthalmia-associated transcription factor (Homo sapiens, UniProt O75030); test: reducers of TRPM1 reporter luminescence, concentration series – cell-based, SK-MEL-5, cherry-picked, set 3, MITF inhibitor project, dose response (AID 493073); format: functional;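 note: SK-MEL-5 melanoma cells with luciferase driven by the MITF target TRPM1 promoter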
# T3 sequence (O75030 whole entry): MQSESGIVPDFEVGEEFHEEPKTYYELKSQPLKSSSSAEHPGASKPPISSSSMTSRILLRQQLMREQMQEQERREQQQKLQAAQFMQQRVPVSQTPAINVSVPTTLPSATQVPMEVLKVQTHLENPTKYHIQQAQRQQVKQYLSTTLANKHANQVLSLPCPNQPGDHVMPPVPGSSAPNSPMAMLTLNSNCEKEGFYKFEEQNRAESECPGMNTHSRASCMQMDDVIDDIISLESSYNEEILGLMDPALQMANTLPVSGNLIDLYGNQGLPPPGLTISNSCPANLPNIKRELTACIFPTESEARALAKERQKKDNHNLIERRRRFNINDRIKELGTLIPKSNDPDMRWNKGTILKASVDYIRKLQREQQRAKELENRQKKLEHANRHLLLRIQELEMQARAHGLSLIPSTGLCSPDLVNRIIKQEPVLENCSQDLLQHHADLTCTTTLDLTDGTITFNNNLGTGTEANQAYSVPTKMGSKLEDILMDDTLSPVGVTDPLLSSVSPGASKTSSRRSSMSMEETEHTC
# INS1 = test: INS-1E survival protection against cytokine death – cell-based, luminescence, retest, dose response (AID 449756); format: functional; settings: Rattus norvegicus;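 note: cell death triggered by IL-1 beta plus TNF-alpha plus IFN-gamma mixture; protective hits raise ATP signal compared with cytokine alone wells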
# A-375 = test: proliferation inhibition in MITF-low A375 cells – cell-based, cherry-pick samples, set 2, counter-screen for MITF modulator project, dose response (AID 540335); format: functional; settings: Homo sapiens
# [6] = microbe, parasite or virus in culture; format: functional; settings: Mycobacterium tuberculosis
# cells [7] = format: functional
# Cytochrome P450 1A2 = molecular target: T4, Cytochrome P450 1A2 (Homo sapiens, UniProt P05177);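 note: PubChem cytochrome P450 panel assay, CYP1A2 panel member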
# T4 sequence (P05177 whole entry): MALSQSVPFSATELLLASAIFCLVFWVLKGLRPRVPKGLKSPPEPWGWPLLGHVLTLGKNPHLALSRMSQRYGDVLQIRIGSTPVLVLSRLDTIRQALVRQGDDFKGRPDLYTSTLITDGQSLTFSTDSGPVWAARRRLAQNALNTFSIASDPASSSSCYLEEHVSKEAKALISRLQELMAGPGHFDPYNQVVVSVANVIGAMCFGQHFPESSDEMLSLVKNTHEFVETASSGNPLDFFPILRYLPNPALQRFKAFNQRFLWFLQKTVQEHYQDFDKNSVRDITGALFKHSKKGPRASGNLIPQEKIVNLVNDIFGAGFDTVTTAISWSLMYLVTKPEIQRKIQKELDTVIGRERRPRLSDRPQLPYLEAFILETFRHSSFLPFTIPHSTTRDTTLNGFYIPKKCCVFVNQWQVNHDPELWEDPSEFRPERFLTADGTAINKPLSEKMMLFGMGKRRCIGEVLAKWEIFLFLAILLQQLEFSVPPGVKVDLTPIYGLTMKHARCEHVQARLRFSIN
# Sequence of Cytochrome P450 3A4 (P08684 whole entry): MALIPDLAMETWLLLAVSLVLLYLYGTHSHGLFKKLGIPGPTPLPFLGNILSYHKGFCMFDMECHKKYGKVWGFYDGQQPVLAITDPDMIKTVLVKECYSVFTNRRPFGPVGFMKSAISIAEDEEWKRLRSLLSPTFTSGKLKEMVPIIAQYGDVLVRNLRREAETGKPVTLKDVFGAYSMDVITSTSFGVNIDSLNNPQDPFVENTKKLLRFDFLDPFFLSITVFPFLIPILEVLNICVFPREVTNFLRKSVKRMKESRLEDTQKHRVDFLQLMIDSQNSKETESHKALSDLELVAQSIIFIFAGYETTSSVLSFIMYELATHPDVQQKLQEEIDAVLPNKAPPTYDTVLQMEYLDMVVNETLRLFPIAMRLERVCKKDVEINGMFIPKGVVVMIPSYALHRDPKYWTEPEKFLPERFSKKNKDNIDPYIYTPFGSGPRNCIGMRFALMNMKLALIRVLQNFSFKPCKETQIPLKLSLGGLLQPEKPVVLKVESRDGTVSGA
# Sequence of Cytochrome P450 2C9 (P11712 whole entry): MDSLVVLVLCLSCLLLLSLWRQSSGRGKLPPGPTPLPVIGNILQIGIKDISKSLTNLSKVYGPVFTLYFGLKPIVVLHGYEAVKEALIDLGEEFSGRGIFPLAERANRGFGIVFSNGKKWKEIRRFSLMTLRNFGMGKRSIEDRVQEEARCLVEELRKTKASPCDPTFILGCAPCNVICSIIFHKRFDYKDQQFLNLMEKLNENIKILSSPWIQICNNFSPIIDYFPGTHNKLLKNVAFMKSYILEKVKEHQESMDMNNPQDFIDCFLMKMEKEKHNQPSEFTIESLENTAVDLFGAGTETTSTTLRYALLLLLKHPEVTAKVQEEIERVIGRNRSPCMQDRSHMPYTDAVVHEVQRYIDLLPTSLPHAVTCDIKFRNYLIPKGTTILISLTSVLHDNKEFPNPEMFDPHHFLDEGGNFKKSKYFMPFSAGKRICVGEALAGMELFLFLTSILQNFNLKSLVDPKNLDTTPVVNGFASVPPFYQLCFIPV
# Sequence of Cytochrome P450 2C19 (P33261 whole entry): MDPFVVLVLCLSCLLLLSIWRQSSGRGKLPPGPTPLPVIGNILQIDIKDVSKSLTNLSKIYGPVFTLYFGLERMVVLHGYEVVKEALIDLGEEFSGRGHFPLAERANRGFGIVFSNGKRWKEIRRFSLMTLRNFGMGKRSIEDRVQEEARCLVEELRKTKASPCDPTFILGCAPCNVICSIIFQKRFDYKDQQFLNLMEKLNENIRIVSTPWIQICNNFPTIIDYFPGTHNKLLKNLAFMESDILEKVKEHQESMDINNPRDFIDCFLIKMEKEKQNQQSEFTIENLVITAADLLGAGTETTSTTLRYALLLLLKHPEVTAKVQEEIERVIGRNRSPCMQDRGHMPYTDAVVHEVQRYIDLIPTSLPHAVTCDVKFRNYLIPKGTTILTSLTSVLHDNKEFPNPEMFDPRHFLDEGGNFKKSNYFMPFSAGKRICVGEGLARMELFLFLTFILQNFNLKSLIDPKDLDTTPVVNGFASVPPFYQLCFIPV
# Sequence of Paired box protein Pax-8 (Q06710 whole entry): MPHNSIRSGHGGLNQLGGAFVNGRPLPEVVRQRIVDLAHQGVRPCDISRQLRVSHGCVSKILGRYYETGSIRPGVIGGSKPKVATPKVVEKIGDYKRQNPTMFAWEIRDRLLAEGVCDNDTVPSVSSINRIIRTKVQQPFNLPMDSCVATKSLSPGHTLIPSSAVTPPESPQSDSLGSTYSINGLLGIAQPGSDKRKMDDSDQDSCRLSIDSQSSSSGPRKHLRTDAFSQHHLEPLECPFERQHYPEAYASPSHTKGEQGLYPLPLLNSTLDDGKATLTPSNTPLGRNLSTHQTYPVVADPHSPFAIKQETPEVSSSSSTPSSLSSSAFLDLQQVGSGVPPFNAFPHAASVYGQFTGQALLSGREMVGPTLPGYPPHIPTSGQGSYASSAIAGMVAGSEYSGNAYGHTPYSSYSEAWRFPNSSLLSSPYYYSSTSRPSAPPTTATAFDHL
structure (smiles),measurement,setting,value
CN1CCN(c2ccc(-c3cccc(NC(=O)COc4ccc(Cl)cc4)c3)nn2)CC1,IC50,cells [1],> 67.5 µM (inactive)
same,IC50,[2],> 67.5 µM (inactive)
Cc1ccnc(NC(=O)c2cccc(S(=O)(=O)N3CCOCC3)c2)c1,IC50,cells [1],> 67.5 µM (inactive)
same,IC50,[2],> 67.5 µM (inactive)
O=C(OC1CCN(c2ncc(C(F)(F)F)cc2Cl)CC1)c1cccc(C(F)(F)F)c1,AC50,Cytochrome P450 2C19,8.91 µM (inconclusive)
same,AC50,Cytochrome P450 2C9,0.2 µM (inconclusive)
same,AC50,Cytochrome P450 3A4,inconclusive
CC(=O)Nc1ccc(-c2ccnc3c2CC(C(=O)NCc2ccccc2)O3)cc1 (centres undefined),IC50,cells [1],> 67.5 µM (inactive)
same,IC50,[2],> 67.5 µM (inactive)
same,AC50,Paired box protein Pax-8,1.5 µM (active)
CCN1CCN(CCCNC(=O)c2ccc3c(c2)NC(=O)/C(=C\c2cccc(C)c2)S3)CC1,AC50,[3],4.17 µM (active)
same,IC50,[4],> 20 µM (inactive)
same,AC50,[5],9.93 µM (active)
same,AC50,INS1,6.5 µM (active)
same,AC50,A-375,17.5 µM (active)
Cc1cc(/C=N\NC(=O)c2cccs2)c(C)n1-c1ccc2ncccc2c1,CC50,[6],> 40 µM (active)
same,IC50,cells [7],34 µM (active)
same,AC50,Cytochrome P450 1A2,39.8 µM (inconclusive)
same,AC50,Cytochrome P450 3A4,inconclusive
